Assay results taken from patent US20220304999A1, “REBAMIPIDE FOR USE IN PREVENTION AND/OR TREATMENT OF ARTERIAL STIFFNESS” (SQUARE POWER LTD., priority 2019, published 2022).

Assay: Carotid to femoral pulse wave velocity (cfPWV) study in patients suffering from arterial stiffness
Assay type: in vivo, human
Description: Aging of cardiovascular system is associated with worsening of arterial cushion function resulting in higher pulse pressure (systolic-diastolic amplitude). Pulse wave velocity (PWV), i.e. velocity at which the blood pressure pulse propagates through the circulatory system, is the gold standard method for arterial stiffness quantification. It can be readily measured non-invasively in humans, is highly reproducible, and predicts future cardiovascular events and all-cause mortality independent of conventional cardiovascular risk factors.
Pulse wave travels along the arteries at a velocity rate, which varies according to wall elasticity: the less elastic the wall, the higher the velocity of PW propagation. PWV measures the time of travel of the pressure wave over a known distance and is calculated as the distance between the two positions of the pulse transducer divided by the time delay measured between pressure upstroke at each site.
To study the effect of rebamipide on arteries, a small study on patients suffering from arterial stiffness was performed. […] Carotid to femoral PWV (cfPWV) was measured in both groups at 0, 3, 6, 9 and 12 months.

In the case of O=C(NC(Cc1cc(=O)[nH]c2ccccc12)C(=O)O)c1ccc(Cl)cc1 (centres unmarked) [rebamipide, 2-[(4-chlorobenzoyl)amino]-3-(2-oxo-1H-quinolin-4-yl)propanoic acid], the “arterial stiffness (carotid to femoral PWV)” value (patients with PWV above normal for age, no atherosclerosis or hyperlipidemia, rebamipide 200 mg three times a day for 12 months vs placebo, cfPWV at 0, 3, 6, 9, 12 months) is reported as “gradually decreasing” and the “difference in arterial stiffness between rebamipide and placebo groups” value (rebamipide 200 mg three times a day vs placebo, 12 months) is reported as “reached statistical significance”.
